{
  "source": "patent US20150238494A1",
  "about": "“HIGHLY SOLUBLE PURINE BIOACTIVE COMPOUNDS AND COMPOSITIONS THEREOF” (JHO Intellectual Property Holdings, LLC, priority 2014, published 2015)",
  "key": {"[1]": {"assay": "Stability of theacrine solutions 0.1%, 0.2%, 0.4% in USP type I glass vials, 3 months at 40° C.", "type": "physicochemical", "conditions": "Storage 40 C., in % (unit assumed)"}, "[2]": {"assay": "Stability of theacrine solution 1.3 mg/ml in USP Type I glass vials, 15 weeks at RT and 40° C.", "type": "physicochemical", "conditions": "1.3 mg/ml solution, in % (unit assumed)", "method": "The Table 1 below is data indicating assay results for stability of a theacrine solution prepared at 1.3 mg/ml and stored in USP Type I Glass vials for 15 weeks at RT and 40° C."}},
  "data": [
    {"smiles": "Cn1c(=O)c2c(n(C)c1=O)n(C)c(=O)n2C", "note": "[Theacrine, 1,3,7,9-Tetramethyluric acid]", "values": [
      {"measurement": "Assay value", "setting": "[1]; 0.1% Solution, 1-M", "result": 101},
      {"measurement": "Assay value", "setting": "[1]; 0.1% Solution, 2-M", "result": 100.4},
      {"measurement": "Assay value", "setting": "[1]; 0.1% Solution, 3-M", "result": 100.7},
      {"measurement": "Assay value", "setting": "[1]; 0.1% Solution, 10-d", "result": 100.4},
      {"measurement": "Assay value", "setting": "[1]; 0.1% Solution, Initial", "result": 100.6},
      {"measurement": "Assay value", "setting": "[1]; 0.2% Solution, 1-M", "result": 98.9},
      {"measurement": "Assay value", "setting": "[1]; 0.2% Solution, 2-M", "result": 97.5},
      {"measurement": "Assay value", "setting": "[1]; 0.2% Solution, 3-M", "result": 99.4},
      {"measurement": "Assay value", "setting": "[1]; 0.2% Solution, 10-d", "result": 98.6},
      {"measurement": "Assay value", "setting": "[1]; 0.2% Solution, Initial", "result": 99.8},
      {"measurement": "Assay value", "setting": "[1]; 0.4% Solution, 1-M", "result": 94.9},
      {"measurement": "Assay value", "setting": "[1]; 0.4% Solution, 2-M", "result": 95.3},
      {"measurement": "Assay value", "setting": "[1]; 0.4% Solution, 3-M", "result": 95.8},
      {"measurement": "Assay value", "setting": "[1]; 0.4% Solution, 10-d", "result": 92.3},
      {"measurement": "Assay value", "setting": "[1]; 0.4% Solution, Initial", "result": 94.1},
      {"measurement": "Assay", "setting": "[2]; Room Temperature (RT), 1-wk", "result": 98.7},
      {"measurement": "Assay", "setting": "[2]; Room Temperature (RT), 2-wk", "result": 100.1},
      {"measurement": "Assay", "setting": "[2]; Room Temperature (RT), 4-wk", "result": 99.2},
      {"measurement": "Assay", "setting": "[2]; Room Temperature (RT), 8-wk", "result": 99.9},
      {"measurement": "Assay", "setting": "[2]; Room Temperature (RT), 15-wk", "result": 99.3},
      {"measurement": "Assay", "setting": "[2]; Room Temperature (RT), Initial", "result": 99.6},
      {"measurement": "Assay", "setting": "[2]; Storage 40 C., 1-wk", "result": 98.2},
      {"measurement": "Assay", "setting": "[2]; Storage 40 C., 2-wk", "result": 98.9},
      {"measurement": "Assay", "setting": "[2]; Storage 40 C., 4-wk", "result": 98.7},
      {"measurement": "Assay", "setting": "[2]; Storage 40 C., 8-wk", "result": 98.6},
      {"measurement": "Assay", "setting": "[2]; Storage 40 C., 15-wk", "result": 98.0},
      {"measurement": "Assay", "setting": "[2]; Storage 40 C., Initial", "result": 99.6}
    ]}
  ]
}
